The text below walks through data of patent publication US8680076B2, “Methods of treatment, improvement and prevention using haloaryl substituted aminopurines” (Signal Pharmaceuticals, LLC, priority 2010, dated 2014).

Counter-ions that a name gives are not always drawn.

What all share (format): in vivo
Data set [1] deals with CD-IGS rats. Kind of data set: Rat model of excisional wound healing. The note with it: 0.5 mg/kg qd orally. Here is the method:
Male CD-IGS rats (Strain code 001; n=32-52 per experiment) were obtained from Charles River Laboratories at a body weight of 175-195 g. Rats were housed in regular shoebox cages and allowed to become acclimated for a minimum of 1 week. Rats were fed Harlan Teklad (No. 7001) 4% mouse/rat diet and water ad libitum and were maintained on a 12-hour light/dark cycle.
Suspensions of Compound JNKi-1 were prepared in aqueous 0.5% CMC and 0.25% Tween-80. The formulations were homogenized using a TEFLON® pestle and mortar (Potter-Elvehjem tissue grinder). Vehicle (aqueous solution of 0.5% carboxymethylcellulose, and 0.25% Tween-80) and test article compounds were dosed at a volume of 5 mL/kg. Groups of rats (n=4-8/group) were dosed orally with vehicle, Dexamethasone (0.5 mg/kg) or Compound JNKi-1 (10 mg/kg, 30 mg/kg or 60 mg/kg) daily throughout the study starting 4 days prior to the procedure and continuing for up to […]. Compound JNKi-1 treated groups and the respective vehicle control group were dosed twice daily (bid) with an 8 hr separation between the doses. Dexamethasone treated animals and the respective vehicle control group were dosed once daily (qd) for the duration of the study.
Rats were anesthetized by inhaled isoflurane and the dorsal area was shaved and swabbed with 70% alcohol. Two points were marked 5.5 and 8.5 cm from the base of the skull along the midline. Four further points were marked 1 cm at either side of the midline, two at each of the marked points. These delineated the centers of four excisional wounds. The biopsy punch (6 mm diameter) was aligned vertically over the center of a mark and the epidermis, dermis and panniculus carnosus pierced by applying pressure and twisting at the same time. The skin plug was then removed. This was repeated for the remaining wounds (FIG. 15). The animal was then allowed to recover. All animals were housed singly during the experiment. Rats were monitored twice a day for the first 24 hours following the procedure and then daily until the end of the study. Body weights were recorded two or three times per week. Animals were sacrificed via CO2 asphyxiation at various time-points (day 1, 5, 10 or 14) following wounding.
Each wound size was measured using an electronic digital caliper and the percent of wound remaining open was calculated relative to the initial wound size recorded on day 0 (day of wounding procedure). Four values were averaged for each animal (four wounds on each rat). Measurements were taken at different time-points throughout the study.
Wounds and 2 mm of surrounding tissue were excised using an 8 mm biopsy punch. Wounds were harvested on days 1, 5, 10 and 14 following the procedure. Tissues were fixed in neutral buffered formalin for 3 h then transferred to 100% ethanol. Tissues were paraffin-embedded and four μm cross sections were cut and mounted on poly-lysine slides and stored in slide boxes at room temperature.
One slide for each specimen was stained for H&E to assess granulation-tissue formation and re-epithelialization of the wound gap.
Samples collected on day 10 and 14 were stained with Trichrome Stain (Masson) Kit (Sigma, HT15) to evaluate collagen deposition and remodeling.
Tissue sections were deparaffinized and hydrated to deionized (DI) water. Sections were incubated in preheated Bouin' Solution (Sigma, HT10-132) at 56° C. overnight and then thoroughly rinsed in tap water. Sections were stained in Weigert's Iron Hematoxylin solution (Sigma, HT10-79) for 15 min, washed, and counterstained with Biebrich Scarlet Acid Fuchsin solution. After washing, sections were incubated with Phosphotungstic-Phosphomolybdic acid solution for 15 min and then stained with Aniline Blue solution. Sections were dehydrated and cleared in xylene.
Wound healing was evaluated on day 10 and day 14 after the procedure. H&E sections were scored for re-epithelialization using the following criteria: […]

For data set [2], the system named is Tsk-1 mice. Kind of data set: Tight skin-1 (Tsk-1) mouse model of systemic sclerosis. Conditions: 50 mg/kg/day IP, 6 weeks. How it is done: The antifibrotic effects of the JNK inhibitor Compound JNKi-1 were tested in a murine tight skin-1 (Tsk-1) model of systemic sclerosis. In this model, a dominant mutation in the fibrillin 1 gene (Fbn1^Tsk+/−) leads to a systemic sclerosis-like disease with inflammatory infiltrates and massive fibrosis of the skin (Akhmetshina A, Venalis P, Dees C, Busch N, Zwerina J, Schett G, et al., Treatment with imatinib prevents fibrosis in different preclinical models of systemic sclerosis and induces regression of established fibrosis, Arthritis Rheum. 2009; 60(1):219-24).
Male and female TSK-1 mice were used. Mice were fed a standard diet with water ad libitum. The room temperature was kept constant at 22° C. with a humidity of 60%.
Compound JNKi-1 was dissolved in 0.5% carboxymethylcellulose (CMC)/0.25% Tween 80 in water. As vehicle control a solution of 0.5% CMC/0.25% Tween 80 in water was used. Imatinib mesylate was dissolved in 0.9% NaCl at a concentration of 50 mg/kg/day in a total volume of 100 μL.
Groups of Tsk-1 mice (n=4/sex/group) were assigned to one of five treatment groups: • Untreated wildtype (Fbn1^Tsk−/−) group received 0.5% CMC/0.25% Tween 80 in water orally (PO) twice daily (BID). • Untreated Fbn1Tsk+/− mice received 0.5% CMC/0.25% Tween 80 in water orally BID. • Compound JNKi-1-treated Fbn1^Tsk+/− received 50 mg/kg orally BID. • Compound JNKi-1-treated Fbn1^Tsk+/− received 150 mg/kg orally BID. • Imatinib mesylate-treated Fbn1^Tsk+/− group received 50 mg/kg/day administered intraperitoneally (IP).
Treatments with Compound JNKi-1 and control compound were started at Week 4. After 6 weeks of treatment, mice were sacrificed, and the antifibrotic effects from each treatment were analyzed.
Antifibrotic effects were determined by measuring the dermal thickness and quantifying the numbers of myofibroblasts in the lesional skin. Dermal thickness was determined by measuring the distance from the epidermal/dermal border to the dermal/subdermal border in H & E-stained sections at four different sites. The number of myofibroblasts was quantified by staining for alpha smooth muscle actin (α-SMA) in paraffin-embedded sections. Data are expressed as mean±standard error of the mean (SEM). SPSS17.0 software and the Mann-Whitney-U-test were used for statistical analyses. A p-value of less than 0.05 was considered statistically significant.

The subject of data set [3] is DBA/2J mice, bleomycin-induced skin fibrosis. Kind of data set: Bleomycin-induced dermal fibrosis mouse model (preventive treatment). Conditions: 50 mg/kg/day IP, mean±SEM. Here is the method:
The selective JNK inhibitor Compound JNKi-1 was tested in a bleomycin-induced dermal fibrosis mouse model, which is considered to represent the early and inflammatory stages of systemic sclerosis (Akhmetshina A, Venalis P, Dees C, Busch N, Zwerina J, Schett G, Distler O, Distler J H, Treatment with imatinib prevents fibrosis in different preclinical models of systemic sclerosis and induces regression of established fibrosis, Arthritis Rheum. 2009; 60(1):219-24). […] In animal models it will similarly induce injury and fibrosis at the site of delivery.
Male and female DBA/2J mice were used. Mice were fed a standard diet with water ad libitum. The room temperature was kept constant at 22° C. with a humidity of 60%.
Compound JNKi-1 was dissolved in 0.5% carboxymethylcellulose (CMC)/0.25% Tween 80 in water. Bleomycin was dissolved in 0.9% sodium chloride (NaCl) at a concentration of 0.5 mg/mL in a total volume of 100 μL. The positive control compound Imatinib mesylate was dissolved in 0.9% NaCl at a concentration of 50 mg/kg/day in a total volume of 100 μL.
Two different dose levels of the JNK-inhibitor Compound JNKi-1 (50 mg/kg and 150 mg/kg, administered twice daily) were used to analyze the anti-fibrotic activity in a mouse model of bleomycin-induced skin fibrosis. […] DBA/2J mice (n=5/sex/group) were assigned to one of five treatment groups: • Control group: 0.5% CMC/0.25% Tween 80 in water orally (PO) twice daily (BID) and subcutaneous injections of 100 μL 0.9% NaCl. • Untreated bleomycin group: intradermal injection of bleomycin and 0.5% CMC/0.25% Tween 80 in water orally BID. • 50 mg/kg Compound JNKi-1: intradermal injection of bleomycin and Compound JNKi-1 orally BID. • 150 mg/kg Compound JNKi-1: intradermal injection of bleomycin and Compound JNKi-1 orally BID. • Positive control group: intradermal injection of bleomycin and imatinib 50 mg/kg/day administered intraperitoneally (IP).
Localized dermal fibrosis was induced by injection of bleomycin every other day for 3 weeks in defined areas of the upper back. Compound JNKi-1 or imatinib was administrated starting from the first dose of bleomycin.
The dermal thickness was determined by staining with hematoxylin and eosin (H & E). The activated fibroblasts (myofibroblasts) at the fibrotic lesions were quantified by immunohistochemistry (IHC) for alpha smooth muscle actin (α-SMA). Collagen concentration in lesional skin was analyzed by hydroxyproline assay. Data are expressed as mean±standard error of the mean (SEM). SPSS17.0 software and the Mann-Whitney-U-test were used for statistical analyses. A p-value of less than 0.05 was considered statistically significant.

Take `C[C@@H]1C[C@H]2[C@@H]3CCC4=CC(=O)C=C[C@]4(C)[C@@]3(F)[C@@H](O)C[C@]2(C)[C@@]1(O)C(=O)CO` [Dexamethasone, reference compound]: in data set [1], the “loss of initial body weight mass” value is recorded as “about 10%” and the “wound gap remaining open at day 10 post wounding” value was “approximately 70%”.
As to `Cc1ccc(NC(=O)c2ccc(CN3CCN(C)CC3)cc2)cc1Nc1nccc(-c2cccnc2)n1` [imatinib mesylate, reference compound], in data set [2], the “decrease of number of myofibroblasts” value was 99%±15%. Besides, the “decrease of hypodermal thickness” value in data set [2] (compared to untreated mice) is recorded as 71%±7%.
With `Cc1ccc(NC(=O)c2ccc(CN3CCN(C)CC3)cc2)cc1Nc1nccc(-c2cccnc2)n1` [imatinib, reference compound], the “reduction in dermal thickening” value in data set [3] (3 weeks bleomycin) was 46%±5%. Further, the “decrease of myofibroblast count” value in data set [3] is reported as 51%±10%.
